Measured values from patent US20250333410A1, “COMPOUND FOR INHIBITING OR DEGRADING BCL6 AND USE THEREOF IN PHARMACEUTICS” (XIZANG HAISCO PHARMACEUTICAL CO., LTD., priority 2022, published 2025).

Key:
[1] = molecular target: hERG potassium ion channel (Homo sapiens (Human), UniProt Q12809); experiment: Test for hERG potassium ion channel (manual patch-clamp, CHO cells); type: cell-based; settings: CHO cells stably expressing hERG, whole cell patch-clamp; read-out: IC50 of inhibitory effects on hERG potassium channel current
Chain of hERG potassium ion channel (Q12809 whole entry): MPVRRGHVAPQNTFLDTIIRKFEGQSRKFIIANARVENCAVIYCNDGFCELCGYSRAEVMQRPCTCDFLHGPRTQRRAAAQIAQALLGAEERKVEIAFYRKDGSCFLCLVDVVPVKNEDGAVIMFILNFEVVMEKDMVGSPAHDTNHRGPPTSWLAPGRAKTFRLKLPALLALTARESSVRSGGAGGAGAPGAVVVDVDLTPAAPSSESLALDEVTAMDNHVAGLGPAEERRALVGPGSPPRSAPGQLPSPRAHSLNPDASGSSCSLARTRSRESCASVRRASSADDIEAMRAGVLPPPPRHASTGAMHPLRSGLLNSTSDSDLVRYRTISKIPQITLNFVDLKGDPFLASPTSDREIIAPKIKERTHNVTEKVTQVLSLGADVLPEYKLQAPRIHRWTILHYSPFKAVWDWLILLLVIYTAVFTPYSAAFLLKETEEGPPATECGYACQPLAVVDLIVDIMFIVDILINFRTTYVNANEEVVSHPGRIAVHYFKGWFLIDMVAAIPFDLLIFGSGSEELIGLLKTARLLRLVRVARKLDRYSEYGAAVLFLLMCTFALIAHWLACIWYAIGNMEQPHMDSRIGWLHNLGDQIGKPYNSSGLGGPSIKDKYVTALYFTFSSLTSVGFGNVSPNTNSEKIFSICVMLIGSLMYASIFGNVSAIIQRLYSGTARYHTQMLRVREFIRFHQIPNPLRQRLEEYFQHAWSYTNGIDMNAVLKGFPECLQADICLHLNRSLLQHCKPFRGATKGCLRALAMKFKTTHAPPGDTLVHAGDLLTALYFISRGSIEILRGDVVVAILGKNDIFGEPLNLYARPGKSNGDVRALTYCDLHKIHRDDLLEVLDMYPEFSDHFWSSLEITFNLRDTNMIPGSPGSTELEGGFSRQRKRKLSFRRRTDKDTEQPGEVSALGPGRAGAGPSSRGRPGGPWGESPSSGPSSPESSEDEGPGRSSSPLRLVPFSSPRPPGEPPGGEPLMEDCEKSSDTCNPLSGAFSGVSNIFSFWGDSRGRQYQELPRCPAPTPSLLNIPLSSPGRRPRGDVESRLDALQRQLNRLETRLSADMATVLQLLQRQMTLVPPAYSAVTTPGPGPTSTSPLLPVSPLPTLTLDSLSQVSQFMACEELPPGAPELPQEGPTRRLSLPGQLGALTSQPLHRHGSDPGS
Description: 8. Test for hERG Potassium Ion Channel
Experimental platform: electrophysiological manual patch-clamp system
Cell line: Chinese hamster ovary (CHO) cell lines stably expressing hERG potassium ion channel
Experimental method: in CHO (Chinese Hamster Ovary) cells stably expressing hERG potassium channel, the whole cell patch-clamp technique was used to record hERG potassium channel current at room temperature. The glass microelectrode was made of a glass electrode blank (BF150-86-10, Sutter) by a puller. The tip resistance after filling the liquid in the electrode was about 2-5 MΩ. The glass microelectrode can be connected to the patch-clamp amplifier by inserting the glass microelectrode into an amplifier probe. The clamping voltage and data recording were controlled and recorded by the pClamp 10 software through a computer. The sampling frequency was 10 kHz, and the filtering frequency was 2 kHz. After the whole cell records were obtained, the cells were clamped at −80 mV, and the step voltage that induced the hERG potassium current (IhERG) was depolarized from −80 mV to +20 mV for 2 s, then repolarized to −50 mV, and returned to −80 mV after 1 s. This voltage stimulation was given every 10 s, and the administration process was started after the hERG potassium current was confirmed to be stable (at least 1 minute). The compound was administered for at least 1 minute at each test concentration, and at least 2 cells (n≥2) were tested at each concentration.
Data processing: data analysis processing was carried out by using pClamp 10, GraphPad Prism 5 and Excel software. The inhibition degree of hERG potassium current (peak value of hERG tail current induced at −50 mV) at different compound concentrations was calculated by the following formula: […]
where Inhibition % represents the percentage of inhibition of hERG potassium current by the compound, and I and Io represent the amplitude of hERG potassium current after and before the administration, respectively.
Compound IC50 was calculated using GraphPad Prism 5 software by fitting according to the following equation: […]
Among the equation, X represents the Log value of the tested concentration of the test sample, Y represents the inhibition percentage at the corresponding concentration, and Bottom and Top represent the minimum and maximum inhibition percentage, respectively.

[2] = Pharmacokinetic test in rats; type: in vivo, SD rats; settings: i.g. 5 mg/kg; for AUC(0-t): male, SD, rat, po, rats plasma
Method: 5. Pharmacokinetic Test in Rats
Experimental objective: in this experiment, a single dose of each test compound was administered to SD rats intravenously and intragastrically, and the concentrations of the test compounds in plasma of rats were measured to evaluate the pharmacokinetic characteristics of the test compounds in rats.
Experimental animal: male SD rats, 200-220 g, 6-8 weeks old, 6 rats/compound, purchased from Chengdu Ddossy Experimental Animals Co., Ltd.
Experimental method: on the day of the experiment, the SD rats were randomly grouped according to their body weights. The animals were fasted but with water available for 12 to 14 h one day before the administration, and were fed 4 h after the administration.
Sampling: Before and after the administration, 0.1 mL of blood was taken from the orbits under isoflurane anesthesia and placed in an EDTAK2 centrifuge tube. Centrifugation was carried out at 5000 rpm at 4° C. for 10 min, and the plasma was collected.
The plasma collection time points for IV&PO groups were 0, 5 min, 15 min, 30 min, 1 h, 2 h, 4 h, 7h, and 24 h.
Before analysis and detection, all samples were stored at −60° C. The samples were analyzed quantitatively by LC-MS/MS. PGP-3212J

Bcl6 [3] = molecular target: T1, Bcl6 (Homo sapiens (Human), UniProt P41182); experiment: Bcl-6 protein degradation experiment in Farage cells; type: cell-based; settings: 24 hours
Method: 2. Bcl-6 Protein Degradation Experiment in Farage Cells
(§1) Farage cells purchased from ATCC were placed in an RPMI-1640 complete medium (containing 10% fetal bovine serum, 100 U/mL penicillin and 100 μg/mL streptomycin) and cultured at 37° C. and 5% CO2. The cells in the logarithmic growth phase were collected, and the cell suspension was adjusted to an appropriate density with the culture medium and added to a 6-well cell culture plate at a volume of 1 mL/well. The compounds to be tested were prepared to 2-fold the final concentration, 1 mL of the compounds at different concentrations were added to administration wells, a medium containing 0.2% DMSO was added to control wells, and the plate was incubated at 37° C. for 24 hours. The cells were collected into a 1.5 mL centrifuge tube, 25 μL of RIPA lysis buffer (containing 1× protease inhibitor cocktail) was added, and the cells were lysed on ice for 15 minutes and centrifuged at 12000 rpm/min at 4° C. for 10 minutes. The supernatant was collected and the protein content was determined using the BCA method. The protein sample to be tested was diluted to 0.8 mg/mL, Bcl6 was detected using a fully automated protein expression quantitative analyzer (ProteinSimple), and the internal reference protein was R-actin (both antibodies were from CST). The software (Compass for SW) of the fully automated protein expression quantitative analyzer was used to process the raw data and calculate the peak area and the Bcl6 expression rate relative to the control group. DC50 values were calculated using a four-parameter non-linear fitting model in Graphpad 8.3.0 software.

[4] = Pharmacokinetic test in mice; type: in vivo, ICR mice; settings: i.g. 5 mg/kg; for AUC(0-t): male, ICR, mouse, po, mice plasma; for F: mice
Method: 3. Pharmacokinetic Test in Mice
1.1 Experimental animal: male ICR mice, 25-30 g, 6 mice/compound, purchased from Chengdu Ddossy Experimental Animals Co., Ltd.
1.2 Experimental design: on the day of the experiment, the ICR mice were randomly grouped according to their body weights. The animals were fasted but with water available for 12 to 14 h one day before the administration, and were fed 4 h after the administration.

Bcl6 [5] = molecular target: T1, Bcl6; experiment: Bcl-6 protein degradation experiment in OCI-LY1 cells; type: cell-based; settings: 24 hours
Method: 4. Bcl-6 Protein Degradation Experiment in OCI-LY1 Cells
as §1, with “OCI-LY1” for “Farage”, “DSMZ” for “ATCC”, “IMDM” for “RPMI-1640”, “penicillin,” for “penicillin and”, “streptomycin and 50 µM mercaptoethanol)” for “streptomycin)”, “[…]” for “μL”

Row | Structure (SMILES) | AUC(0-t) [2] | F ([2]; rats) | DC50 (Bcl6 [3]) | AUC(0-t) [4] | F [4] | DC50 (Bcl6 [5]) | DC50 (Bcl6 [5]; listed as compound 8) | IC50 [1]
1 | [2H]C([2H])([2H])n1c(=O)c(OCC(=O)NC)cc2cc(Nc3nc(N4CCC(O[C@H]5C[C@H](N6CCN7c8cc(F)c(C9CCC(=O)NC9=O)cc8CC[C@H]7C6)C5)CC4)ncc3Cl)ccc21 (stereo partly drawn) [Trifluoroacetate of compound 73] | > 1000 ng·h/mL | – | < 10 nM | – | – | – | – | > 40000 nM
2 | CCn1c(=O)c(OCC(=O)NC)cc2cc(Nc3nc(N4CCC(O[C@H]5C[C@H](N6CCN7c8cc(F)c(C9CCC(=O)NC9=O)cc8CC[C@@H]7C6)C5)CC4)ncc3Cl)ccc21 (stereo partly drawn) [Trifluoroacetate of compound 74] | > 1000 ng·h/mL | – | < 10 nM | – | – | – | – | –
3 | CNC(=O)COc1cc2cc(Nc3nc(N4CCC(CN5CCn6c(nc7cc(F)c(C8CCC(=O)NC8=O)cc76)C5)CC4)ncc3Cl)ccc2n(C(C)C)c1=O (stereo not drawn) [Trifluoroacetate of compound 75] | – | – | < 10 nM | – | – | – | – | > 40000 nM
4 | CNC(=O)COc1cc2cc(Nc3nc(N4CCC(CN5CCn6c(cc7cc(C8CCC(=O)NC8=O)c(F)cc76)C5)CC4)ncc3Cl)ccc2n(C(C)C)c1=O (stereo not drawn) [Trifluoroacetate of compound 77] | – | – | < 10 nM | – | – | – | – | > 40000 nM
5 | CNC(=O)COc1cc2cc(Nc3nc(N4CCC(O[C@H]5C[C@H](N6CCn7c(cc8cc(C9CCC(=O)NC9=O)c(F)cc87)C6)C5)CC4)ncc3Cl)ccc2n(C(C)C)c1=O (stereo partly drawn) [Trifluoroacetate of compound 78] | > 1000 ng·h/mL | – | < 10 nM | – | – | – | – | > 40000 nM

Now from value to compound, other results behind:

Row | AUC(0-t) [2] | F ([2]; rats) | DC50 (Bcl6 [3]) | AUC(0-t) [4] | F [4] | DC50 (Bcl6 [5]) | DC50 (Bcl6 [5]; listed as compound 8) | Structure (SMILES) | IC50 [1]
6 | > 1000 ng·h/mL | >50% | < 10 nM | > 1000 ng·h/mL | >50% | < 100 nM | < 5 nM | CNC(=O)COc1cc2cc(Nc3nc(N4CCN(CC5CCN(c6ccc(C7CCC(=O)NC7=O)cc6)CC5)CC4)ncc3Cl)ccc2n(C)c1=O (stereo not drawn) [Compound 8] | > 40000 nM
7 | – | – | < 10 nM | > 1000 ng·h/mL | >50% | – | – | [2H]C([2H])([2H])NC(=O)COc1cc2cc(Nc3nc(N4CCC(CN5CCN6c7cc(F)c(C8CCC(=O)NC8=O)cc7CC[C@H]6C5)CC4)ncc3Cl)ccc2n(C)c1=O (stereo partly drawn) [Trifluoroacetate of compound 67] | > 40000 nM
8 | > 1000 ng·h/mL | – | < 10 nM | – | – | – | – | [2H]C([2H])([2H])NC(=O)COc1cc2cc(Nc3nc(N4CCC(O[C@H]5C[C@H](N6CCN7c8cc(F)c(C9CCC(=O)NC9=O)cc8CC[C@H]7C6)C5)CC4)ncc3Cl)ccc2n(C([2H])([2H])[2H])c1=O (stereo partly drawn) [Trifluoroacetate of compound 71] | > 40000 nM
9 | > 1000 ng·h/mL | – | < 10 nM | – | – | – | – | [2H]C([2H])([2H])NC(=O)COc1cc2cc(Nc3nc(N4CCC(O[C@H]5C[C@H](N6CCN7c8cc(F)c(C9CCC(=O)NC9=O)cc8CC[C@H]7C6)C5)CC4)ncc3Cl)ccc2n(C)c1=O (stereo partly drawn) [Trifluoroacetate of compound 72] | > 40000 nM
